Holding throughout (type): in vivo, Wistar rats
One test deals with rats. The test is described as follows: Elevated plus maze test during ethanol withdrawal. The method, then:
In this third experiment (n=25), the treatment with ethanol intoxication and pre-treatment with OEA applied in experiment 2 was repeated, and the animals were subjected to elevated plus maze test 24 h and 12 days after the last forced administration of ethanol and to the forced swim test 48 h after the ethanol intoxication protocol. The rats were subjected to the forced swim test two days after the last ethanol force-feeding (see FIG. 1C for the experimental design), and specific behaviors were recorded with a digital video camera for 5 minutes. These same rats were also subjected to the elevated plus maze test equipped with infrared light photography (Panlab, Barcelona, Spain) 1 and 12 days after the last ethanol force-feeding, where the animals were allowed to freely explore the maze for 5 minutes. The tests were performed 3 h after the start of the dark phase.

In another test the test system is caspase-8. The test is described as follows: Caspase-8 mRNA in frontal cortex after ethanol intoxication. To be noted: OEA pre-treatment. The method, then:
The animals were treated with intragastric (i.g.) ethanol 3 times a day using an i.g. cannula (16G needle, Fisher Scientific, Waltham, Mass., USA), following a protocol based on a slightly modified standard 4-day alcohol intoxication pattern (Bernier et al., 2002a, b) (FIG. 1A). The ethanol doses were administered every 8 h for a total time of 4 days. The rats treated with ethanol received an initial loading dose of 5 g/kg of ethanol in a 30% solution (w/v) and then a maximum maintenance dose of 3 g/kg, which were determined based on blood ethanol levels (BEL). This repeated standard alcohol intoxication paradigm kept BEL intoxication relatively constant in a range of sedation/ataxia (190 to 430 mg/dl, Table 3), according to the 6-point alcohol intoxication behavior scale (Majchrowicz, 1975). The mean dose of ethanol/rat/day (days 1-4) was 7.06 g/kg, similar to other studies (Obernier et al., 2002a, b). OEA (5 mg/kg, i.p., except initial dose of 10 mg/kg i.p.; synthesized as described in Giuffrida et al., 2000) was dissolved in the vehicle (5% Tween-80 in saline solution) and injected 10 minutes before each of the administrations of ethanol by an intragastric gavage. […] The quantitative changes in mRNA levels were estimated by means of RT-PCR, carried out in the presence of the SYBR green primer using a 20-L reaction in a Rotor-Gene (Corbett Research®, Mortlake, NSW, Australia). […]

In another test the test system is NF-kB p65 subunit. Put plainly: NF-κB p65 mRNA and nuclear activity (ELISA-based kit) in frontal cortex after ethanol intoxication. The method, then: The animals were treated with intragastric (i.g.) ethanol 3 times a day using an i.g. cannula (16G needle, Fisher Scientific, Waltham, Mass., USA), following a protocol based on a slightly modified standard 4-day alcohol intoxication pattern (Bernier et al., 2002a, b) (FIG. 1A). The ethanol doses were administered every 8 h for a total time of 4 days. The rats treated with ethanol received an initial loading dose of 5 g/kg of ethanol in a 30% solution (w/v) and then a maximum maintenance dose of 3 g/kg, which were determined based on blood ethanol levels (BEL). This repeated standard alcohol intoxication paradigm kept BEL intoxication relatively constant in a range of sedation/ataxia (190 to 430 mg/dl, Table 3), according to the 6-point alcohol intoxication behavior scale (Majchrowicz, 1975). […] The quantitative changes in mRNA levels were estimated by means of RT-PCR, carried out in the presence of the SYBR green primer using a 20-L reaction in a Rotor-Gene (Corbett Research®, Mortlake, NSW, Australia). […] The nuclear extracts of the frontal cortex were incubated with specific NF-kB p65 subunit response element probes, and the binding of p65 to its probe was detected using an antibody specific for this subunit. A secondary antibody labeled by means of horseradish peroxidase was added, and the binding was detected by means of spectrophotometry at 450 nm. […]

SMILES strings stand for the structures.

Consider `CCCCCCCC/C=C\CCCCCCCC(=O)NCCO` [OEA, oleoylethanolamide], for which the “Elevated plus maze: percentage of entries and time in the open arms” value in the test with rats (24 h after ethanol intoxication, Dunn's post-hoc test did not find significant effects) is listed as “clear trend that shows a clear anxiolytic effect”; in the test on rats (12 days after ethanol intoxication), “not significant”. The “Ethanol-induced overexpression of caspase-8 mRNA” value with caspase-8 was “reversed”. Moreover, the “Ethanol-induced increase in nuclear activity of p65” value in the test on NF-kB p65 subunit (frontal cortex nuclear extracts, OEA pre-treatment) is “counteracted”. The “Ethanol-induced increase in p65 mRNA levels” value with NF-kB p65 subunit (frontal cortex, OEA pre-administration) is “partially prevented”.

The record behind these values is patent US20190365675A1, “COMPOSITIONS FOR THE PREVENTION AND/OR TREATMENT OF ALCOHOL USE DISORDERS” (SERVICIO ANDALUZ DE SALUD, priority 2016, published 2019).
